Reference: ChEMBL document CHEMBL1201862, “PubChem BioAssay data set” (2004)
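Growth conditions: 96-well plates. Treatment: test compound, 48 hours, 5 concentrations. Analysis: linear interpolation between bracketing concentrations; unreached endpoints set to highest concentration. GI50 = concentration required for 50% inhibition of growth.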 Active and inactive are the calls of the source. Cut-off read from the data, not from the text of the source: active = GI50 up to about 1.1 µM and inactive = higher.

How the values were obtained:
Assay in all cases: NCI anticancer screen, dose series, 48 h
CAKI-1 = test system: CAKI-1
TK-10 = test system: TK-10
SK-OV-3 = test system: SK-OV-3
HCT-15 = test system: HCT-15
LOX IMVI = test system: LOX IMVI
SW-620 = test system: SW-620
IGROV-1 = test system: IGROV-1
SF-295 = test system: SF-295
CCRF-CEM = test system: CCRF-CEM
HCC 2998 = test system: HCC 2998
RXF 393 = test system: RXF 393
HCT-116 = test system: HCT-116
SF-268 = test system: SF-268
Malme-3M = test system: Malme-3M
NCI-H460 = test system: NCI-H460
MOLT-4 = test system: MOLT-4
U-251 = test system: U-251
KM12 = test system: KM12
EKVX = test system: EKVX
OVCAR-8 = test system: OVCAR-8

Row | SMILES | GI50 (CAKI-1) | GI50 (TK-10) | GI50 (SK-OV-3) | GI50 (HCT-15) [µM] | GI50 (LOX IMVI) | GI50 (SW-620) | GI50 (IGROV-1) | GI50 (SF-295) | GI50 (CCRF-CEM) | GI50 (HCC 2998) | GI50 (RXF 393) | GI50 (HCT-116) | GI50 (SF-268) | GI50 (Malme-3M) | GI50 (NCI-H460) | GI50 (MOLT-4) | GI50 (U-251) | GI50 (KM12) | GI50 (EKVX) | GI50 (OVCAR-8)
1 | CC1(C)CCCC2(C)[C@@H]1CC[C@]13C[C@](C)(CC[C@@H]21)[C@@H]3CO (some centres undefined) | > 100 µM (inactive) | > 100 µM (inactive) | > 100 µM (inactive) | > 100 | > 100 µM (inactive) | > 100 µM (inactive) | > 100 µM (inactive) | > 100 µM (inactive) | > 100 µM (inactive) | > 100 µM (inactive) | 98.9 µM (inactive) | > 100 µM (inactive) | > 100 µM (inactive) | > 100 µM (inactive) | > 100 µM (inactive) | > 100 µM (inactive) | > 100 µM (inactive) | > 100 µM (inactive) | – | –
2 | O=C1C[C@H](Sc2ccccc2)C2(OCCO2)[C@H]2ON3CCC[C@@H]3[C@@H]12 | 2.29 µM (inactive) | 3.61 µM (inactive) | 3.13 µM (inactive) | 0.59 | 1.09 µM (active) | 0.723 µM (active) | 0.9 µM (active) | 3.79 µM (inactive) | 0.127 µM (active) | 2.57 µM (inactive) | 1.69 µM (inactive) | 0.841 µM (active) | 1.65 µM (inactive) | 1.73 µM (inactive) | 2.92 µM (inactive) | 0.333 µM (active) | 1.88 µM (inactive) | 1.36 µM (inactive) | 2.53 µM (inactive) | 0.918 µM (active)
3 | Cc1cc(NCCCCCCCNc2cc(C)nc3cc([N+](=O)[O-])ccc23)c2ccc([N+](=O)[O-])cc2n1 | 23.7 µM (inactive) | 17.7 µM (inactive) | 24.9 µM (inactive) | 2.55 | 2 µM (inactive) | 2.1 µM (inactive) | 9.44 µM (inactive) | 5.9 µM (inactive) | 2.04 µM (inactive) | 11.1 µM (inactive) | 8.18 µM (inactive) | 1.69 µM (inactive) | 2.4 µM (inactive) | 29.6 µM (inactive) | 2.04 µM (inactive) | 1.9 µM (inactive) | 4.28 µM (inactive) | 1.85 µM (inactive) | 15.2 µM (inactive) | 1.87 µM (inactive)
4 | O=C1/C(=C\c2cccc(Oc3ccccc3)c2)SC(c2ccccc2)N1c1cccc([N+](=O)[O-])c1 (centres undefined) | > 100 µM (inactive) | > 100 µM (inactive) | > 100 µM (inactive) | > 100 | 41.6 µM (inactive) | 56.4 µM (inactive) | – | > 100 µM (inactive) | 21.7 µM (inactive) | > 100 µM (inactive) | > 100 µM (inactive) | 32.7 µM (inactive) | > 100 µM (inactive) | > 100 µM (inactive) | > 100 µM (inactive) | 40.7 µM (inactive) | 36.7 µM (inactive) | 72.1 µM (inactive) | > 100 µM (inactive) | 35.5 µM (inactive)
5 | O=S1(=O)CS(=O)(=O)OCCCO1 | 24.3 µM (inactive) | > 100 µM (inactive) | > 100 µM (inactive) | > 100 | > 100 µM (inactive) | > 100 µM (inactive) | > 100 µM (inactive) | 54.1 µM (inactive) | 63.8 µM (inactive) | > 100 µM (inactive) | > 100 µM (inactive) | > 100 µM (inactive) | > 100 µM (inactive) | > 100 µM (inactive) | 27.3 µM (inactive) | 51.3 µM (inactive) | > 100 µM (inactive) | > 100 µM (inactive) | > 100 µM (inactive) | > 100 µM (inactive)
6 | COc1cccc(N/C(C)=C2/CCOC2=O)c1 | > 10 µM (inactive) | > 10 µM (inactive) | > 10 µM (inactive) | 5.08 | > 10 µM (inactive) | > 10 µM (inactive) | > 10 µM (inactive) | > 10 µM (inactive) | > 10 µM (inactive) | > 10 µM (inactive) | > 10 µM (inactive) | > 10 µM (inactive) | > 10 µM (inactive) | > 10 µM (inactive) | > 10 µM (inactive) | > 10 µM (inactive) | > 10 µM (inactive) | > 10 µM (inactive) | > 10 µM (inactive) | > 10 µM (inactive)
7 | O=C1N=C(SC(SC2=NC(=O)C3(NN2)c2ccccc2-c2ccccc23)=C(SC2=NC(=O)C3(NN2)c2ccccc2-c2ccccc23)SC2=NC(=O)C3(NN2)c2ccccc2-c2ccccc23)NNC12c1ccccc1-c1ccccc12 | > 10 µM (inactive) | > 10 µM (inactive) | > 10 µM (inactive) | 3.62 | > 10 µM (inactive) | > 10 µM (inactive) | 8.2 µM (inactive) | > 10 µM (inactive) | 5.21 µM (inactive) | > 10 µM (inactive) | > 10 µM (inactive) | 5.55 µM (inactive) | > 10 µM (inactive) | > 10 µM (inactive) | 3.33 µM (inactive) | 0.437 µM (active) | – | 9.29 µM (inactive) | 2.59 µM (inactive) | 7.21 µM (inactive)
8 | CC(C)(C)c1cc(C(=O)/C=C/c2ccc(O)c(O)c2O)cc(C(C)(C)C)c1O | 3.21 µM (inactive) | 3.57 µM (inactive) | 3.87 µM (inactive) | 0.991 | 9.71 µM (inactive) | 2.58 µM (inactive) | 6 µM (inactive) | 5.41 µM (inactive) | 1.73 µM (inactive) | 2.84 µM (inactive) | 2.84 µM (inactive) | 2.73 µM (inactive) | 5.3 µM (inactive) | 11.5 µM (inactive) | 1.78 µM (inactive) | 2.49 µM (inactive) | 2.79 µM (inactive) | 2.58 µM (inactive) | 4.83 µM (inactive) | 4.07 µM (inactive)
9 | CCCn1c(CN(Cc2nc3ccccc3n2CCC)Cc2nc3ccccc3n2CCC)nc2ccccc21 | 2.81 µM (inactive) | 15.7 µM (inactive) | 41.5 µM (inactive) | 4.39 | 3.7 µM (inactive) | 5.11 µM (inactive) | 1.94 µM (inactive) | 8.55 µM (inactive) | 2.76 µM (inactive) | 5.68 µM (inactive) | 0.249 µM (active) | 1.74 µM (inactive) | 3.99 µM (inactive) | 4.94 µM (inactive) | 3.27 µM (inactive) | 3.21 µM (inactive) | 3.97 µM (inactive) | 4.68 µM (inactive) | 0.966 µM (active) | 2.25 µM (inactive)
10 | CC(O)C(O)C(N)CC=O (centres undefined) | > 500 µM (inactive) | – | > 500 µM (inactive) | > 500 | 499 µM (inactive) | > 158 µM (inactive) | > 500 µM (inactive) | > 500 µM (inactive) | > 500 µM (inactive) | > 500 µM (inactive) | > 500 µM (inactive) | > 500 µM (inactive) | > 500 µM (inactive) | > 500 µM (inactive) | > 500 µM (inactive) | > 500 µM (inactive) | > 500 µM (inactive) | > 500 µM (inactive) | 491 µM (inactive) | > 500 µM (inactive)
11 | O=C1c2ccccc2C(=O)N1[C@@H](Cc1ccccc1)C(=O)n1cccc1CO | > 100 µM (inactive) | > 100 µM (inactive) | > 100 µM (inactive) | > 100 | > 100 µM (inactive) | > 100 µM (inactive) | > 100 µM (inactive) | > 100 µM (inactive) | > 100 µM (inactive) | > 100 µM (inactive) | 1.02 µM (active) | > 100 µM (inactive) | > 100 µM (inactive) | > 100 µM (inactive) | > 100 µM (inactive) | > 100 µM (inactive) | > 100 µM (inactive) | > 100 µM (inactive) | > 100 µM (inactive) | > 100 µM (inactive)
12 | CC(=O)Nc1cc2c(cc1O)CC[C@@H]1[C@@H]2CC[C@]2(C)[C@@H](O)CC[C@@H]12 | 84.1 µM (inactive) | 49.7 µM (inactive) | > 100 µM (inactive) | 15.3 | 34.6 µM (inactive) | 27.7 µM (inactive) | 82.4 µM (inactive) | 31.3 µM (inactive) | 23.9 µM (inactive) | 37.2 µM (inactive) | 43.3 µM (inactive) | – | 13.1 µM (inactive) | 21.8 µM (inactive) | 34.8 µM (inactive) | 34.7 µM (inactive) | 42 µM (inactive) | 15 µM (inactive) | 33 µM (inactive) | 44.3 µM (inactive)
